Read-outs that look alike come from different tables or passages of the source.
How the values were obtained:
[1] = system: DPPIV-intact normal male Fisher rats; test: Influences of metformin and DPPIV inhibitors (Examples 82, 119, 120, 122, 229, 267), singly or in combination, on GLP-1 level in normal rats; assay type: in vivo, rat; conditions: 3 hours
Experimental: Animals: DPPIV-Intact Normal Male Fisher Rats (Purchased from CLEA Japan, Inc.)
250 μL of blood was collected from the rat using a heparinized capillary and transferred into a centrifugation tube.

Zucker fa/fa rats [2] = conditions: 30 mg/kg p.o. twice daily for 14 days
Experimental: (§1) Animals: Zucker fa/fa Rats, an Animal Model for TypeII Diabetes (Purchased from Charles River Japan, Inc.)
(§2) Each test compound was dissolved in distilled water at the doses shown in the Tables indicated below, and then administered orally at a volume of 5 mL/kg. The vehicle control group was orally administered distilled water at a volume of 5 mL/kg. […] The rats were tested for glucose tolerance on the first day of the administration series. In the test, distilled water and the test compounds were given 0.5 hour before glucose load.
Food intake and body weight were determined at 4:00 p.m after the 14-day administration series. Total food intake and weight gain over 14 days were determined for each experimental group.

Zucker fa/fa rats [3] = conditions: for Blood glucose level at each time point (hr) after oral glucose administration / GLP-1 concentration at each time point (hr) after oral glucose administration (% of Pre) / Insulin concentration at each time point (hr) after oral glucose administration: 30 mg/kg p.o. 0.5 hour before glucose load
Experimental: as §1, §2
For the glucose tolerance test, an unanesthetized rat was lightly cut at the caudal vein with a razor blade and bled immediately before the administration of a test compound or distilled water, and immediately before, and at 0.5, 1, 2, and 3 hours after glucose load. 250 μL of blood was collected from the rat using a heparinized capillary and transferred into a centrifugation tube. The supernatant obtained by centrifugation (at 10000 g at 4° C. for 2 minutes) was assayed for active GLP-1 level using Active GLP-1 ELISA kit (Linco). At the same time, 10 μL of blood was collected and mixed with 140 μL of a 0.6 M perchloric acid solution. The mixture was centrifuged (at 3000 g at 4° C. for 10 minutes), and the resulting supernatant was assayed for glucose using Glucose Test Wako II (Wako Pure Chemical Industries, Inc.). The level of blood glucose alone was determined at the time of measurement 3 hours after glucose load.

[4] = system: DPPIV-intact normal male Fisher rats; conditions: 30 mg/kg p.o.
Experimental: Each test compound was suspended in a solution of 0.5% methyl cellulose at the doses indicated in Table 3, and then administered orally at a volume of 5 mL/kg. The vehicle control group was orally administered a solution of 0.5% methyl cellulose at a volume of 5 mL/kg.
An unanesthetized rat was lightly cut at the caudal vein with a razor blade and bled immediately before, and at 1, 3, and 5 hours after administration of a test compound or a solution of 0.5% methyl cellulose. 250 μL of blood was collected from the rat using a heparinized capillary and transferred into a centrifugation tube. The supernatant obtained by centrifugation (at 10000 g at 4° C. for 2 minutes) was assayed for GLP-1 level using Active GLP-1 ELISA kit (Linco).

[5] = target: T1, DPPIV obtained from swine kidney (Sus scrofa, UniProt P22411); test: Assay for the DPPIV-inhibiting activity; assay type: biochemical; conditions: DPPIV 10 mU/mL; Gly-Pro-p-nitroanilide 0.33 mM; absorbance 405 nm; read-out: IC50
T1 construct: DPPIV obtained from swine kidney; from tissue; host or cells: swine kidney
T1 sequence (P22411 whole entry): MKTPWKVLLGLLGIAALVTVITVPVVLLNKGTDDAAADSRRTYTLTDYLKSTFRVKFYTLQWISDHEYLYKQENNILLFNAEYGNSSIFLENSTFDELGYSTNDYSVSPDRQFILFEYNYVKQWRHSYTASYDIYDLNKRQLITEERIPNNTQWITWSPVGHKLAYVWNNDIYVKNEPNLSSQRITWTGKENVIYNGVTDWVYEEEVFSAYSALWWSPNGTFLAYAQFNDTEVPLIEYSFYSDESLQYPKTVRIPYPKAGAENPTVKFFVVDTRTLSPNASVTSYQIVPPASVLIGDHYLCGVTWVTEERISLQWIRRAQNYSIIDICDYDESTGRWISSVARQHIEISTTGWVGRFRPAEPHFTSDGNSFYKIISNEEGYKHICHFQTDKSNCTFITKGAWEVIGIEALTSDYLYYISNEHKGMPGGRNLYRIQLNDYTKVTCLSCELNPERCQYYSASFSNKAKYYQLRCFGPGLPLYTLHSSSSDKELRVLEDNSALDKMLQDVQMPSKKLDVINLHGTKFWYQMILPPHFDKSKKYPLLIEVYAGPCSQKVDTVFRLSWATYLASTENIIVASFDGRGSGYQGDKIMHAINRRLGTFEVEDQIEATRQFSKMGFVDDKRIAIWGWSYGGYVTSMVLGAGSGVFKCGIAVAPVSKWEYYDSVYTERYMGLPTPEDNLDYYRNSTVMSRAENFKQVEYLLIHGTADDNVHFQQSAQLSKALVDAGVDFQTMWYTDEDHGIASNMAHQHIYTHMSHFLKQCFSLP
Experimental: DPPIV obtained from swine kidney was dissolved in a reaction buffer (50 mM Tris-HCl (pH 7.4)/0.1% BSA) at a fmal concentration of 10 mU/mL. A 110 μL aliquot of this enzyme solution was added to the reaction system, and then 15 μL of an agent was added. The reaction solution was incubated at room temperature for 20 minutes. 25 μL of a solution containing 2 mM Gly-Pro-p-nitroanilide was added to the reaction solution (at the final concentration of 0.33 mM) to start the enzyme reaction. The reaction time was 20 minutes. 25 μL of 1N phosphate solution was added to stop the reaction. […] The degree of inhibition to the enzyme reaction was determined, and IC50 was computed based on the absorbance.

Experimental for BALB/c AnCrj mice: Animals: BALB/c AnCrj Mice (Purchased from Charles River Japan, Inc.)
5-FU (purchased from Sigma) was suspended in a solution of 0.5% methyl cellulose, and then administered orally at a volume of 10 mL/kg/day (8 a.m. to 9 a.m.) for 3 days (60 mg/kg). […] The vehicle control group was orally administered a solution of 0.5% methyl cellulose at a volume of 10 mL/kg.
Mice were fasted for 18 hours following the afternoon administration on the third day of the administration series. On the following day, the mice were killed by cervical dislocation, and then the whole small intestine was excised and the wet weight was measured.

## CC#CCn1c(N2CCNCC2)nc2nc(C#N)n(C)c(=O)c21.O=C(O)C(F)(F)F [Example 82, 7-(2-Butynyl)-2-cyano-1-methyl-8-(piperazin-1-yl)-1,7-dihydropurin-6-one trifluoroacetate]
[1]; 20 mg/kg p.o.
  GLP-1 concentration 3 hours after oral administration (% of Pre): 97.3 ± 2.1 % of Pre

## CC(C)[C@H](N)C(=O)N1CCCC1 [Val-Pyr, valine pyrrolidide]
Zucker fa/fa rats [2]
  Total food intake for 14 days: 491.8 ± 11.1 g
  Weight gain for 14 days: 60.9 ± 4.4 g
Zucker fa/fa rats [3]
  level of insulin during the glucose tolerance test: increased significantly
Zucker fa/fa rats [3]; 0 hr
  Blood glucose level at each time point (hr) after oral glucose administration: 110.5 ± 3.3 mg/dL
  GLP-1 concentration at each time point (hr) after oral glucose administration (% of Pre): 119.5 ± 3.6 % of Pre
  Insulin concentration at each time point (hr) after oral glucose administration: 13.1 ± 1.2 ng/mL
Zucker fa/fa rats [3]; 0.5 hr
  Blood glucose level at each time point (hr) after oral glucose administration: 166.0 ± 9.9 mg/dL
  GLP-1 concentration at each time point (hr) after oral glucose administration (% of Pre): 217.6 ± 24.6 % of Pre
  Insulin concentration at each time point (hr) after oral glucose administration: 32.4 ± 3.2 ng/mL
Zucker fa/fa rats [3]; 1 hr
  Blood glucose level at each time point (hr) after oral glucose administration: 167.1 ± 7.0 mg/dL
  GLP-1 concentration at each time point (hr) after oral glucose administration (% of Pre): 197.5 ± 20.4 % of Pre
  Insulin concentration at each time point (hr) after oral glucose administration: 27.7 ± 5.0 ng/mL
Zucker fa/fa rats [3]; 2 hr
  Blood glucose level at each time point (hr) after oral glucose administration: 139.3 ± 3.3 mg/dL
  GLP-1 concentration at each time point (hr) after oral glucose administration (% of Pre): 128.3 ± 5.4 % of Pre
  Insulin concentration at each time point (hr) after oral glucose administration: 14.4 ± 2.6 ng/mL
Zucker fa/fa rats [3]; 3 hr
  Blood glucose level at each time point (hr) after oral glucose administration: 115.1 ± 3.0 mg/dL
Zucker fa/fa rats [3]; −0.5 hr
  Blood glucose level at each time point (hr) after oral glucose administration: 102.6 ± 3.0 mg/dL
  GLP-1 concentration at each time point (hr) after oral glucose administration (% of Pre): 100.0 ± 0.0 % of Pre
  Insulin concentration at each time point (hr) after oral glucose administration: 8.8 ± 1.1 ng/mL
Zucker fa/fa rats [3]; glucose tolerance test
  glucose tolerance: improved
[4]; 0 hr
  GLP-1 concentration at each time point (hr) after oral administration (% of Pre): 100 ± 0.0 % of Pre
[4]; 1 hr
  GLP-1 concentration at each time point (hr) after oral administration (% of Pre): 127 ± 6 % of Pre
[4]; 3 hr
  GLP-1 concentration at each time point (hr) after oral administration (% of Pre): 136 ± 20 % of Pre
[4]; 5 hr
  GLP-1 concentration at each time point (hr) after oral administration (% of Pre): 91 ± 2 % of Pre
BALB/c AnCrj mice; 30 mg/kg p.o. twice a day, 5-FU treatment 60 mg/kg for 3 days, mice
  Wet weight of small intestine: 0.637 ± 0.015 g
BALB/c AnCrj mice; 30 mg/kg p.o. twice a day, 5-FU treatment 60 mg/kg for 3 days, mice, listed as DPPIV inhibitor
  Wet weight of small intestine (g): no alteration

## O=c1[nH]cc(F)c(=O)[nH]1 [Example 5-FU, 5-Fluorouracil]
BALB/c AnCrj mice; 5-FU 60 mg/kg p.o. for 3 days
  wet weight of mouse small intestine: significantly decreased

## CC#CCn1c(N2CCNCC2)nc2cnn(Cc3ccccc3C#N)c(=O)c21.O=C(O)C(F)(F)F [Example 267, 2-[3-(2-Butynyl)-4-oxo-2-(piperazin-1-yl)-3,4-dihydroimidazo[4,5-d]pyridazin-5-ylmethyl]benzonitrile trifluoroacetate]
[1]; 10 mg/kg p.o.
  GLP-1 concentration 3 hours after oral administration (% of Pre): 110.0 ± 9.0 % of Pre

## CC#CCn1c(N2CCNCC2)nc2nc(C#N)n(Cc3ccccc3C#N)c(=O)c21.Cl [Example 229, 7-(2-Butynyl)-1-(2-cyanobenzyl)-6-oxo-8-(piperazin-1-yl)-6,7-dihydro-1H-purine-2-carbonitrile hydrochloride]
[1]; 10 mg/kg p.o.
  GLP-1 concentration 3 hours after oral administration (% of Pre): 102.5 ± 1.7 % of Pre

## CC#CCn1c(N2CCCC(N)C2)nc2cnn(C)c(=O)c21.O=C(O)C(F)(F)F (centres unmarked) [Example 120, 2-(3-Aminopiperidin-1-yl)-3-(2-butynyl)-5-methyl-3,5-dihydroimidazo[4,5-d]pyridazin-4-one trifluoroacetate]
[1]; 10 mg/kg p.o.
  GLP-1 concentration 3 hours after oral administration (% of Pre): 104.8 ± 2.9 % of Pre

## CC#CCn1c(N2CCNCC2)nc2nc(Oc3ccccc3C(N)=O)n(C)c(=O)c21 [Example 122, 2-[7-(2-Butynyl)-1-methyl-6-oxo-8-(piperazin-1-yl)-6,7-dihydro-1H-purin-2-yloxy]benzamide]
[1]; 10 mg/kg p.o.
  GLP-1 concentration 3 hours after oral administration (% of Pre): 108.2 ± 6.6 % of Pre
[5]
  IC50: 15.3 nM

## CC#CCn1c(N2CCNCC2)nc2cnn(C)c(=O)c21 [Example 119, 3-(2-Butynyl)-5-methyl-2-(piperazin-1-yl)-3,5-dihydroimidazo[4,5-d]pyridazin-4-one]
[1]; 10 mg/kg p.o.
  GLP-1 concentration 3 hours after oral administration (% of Pre): 98.9 ± 2.2 % of Pre
[5]
  IC50: 154 nM

Reference: patent publication US20060094722A1 (Eisai Co., Ltd., priority 2002, published 2006)
